“Also recorded” adds a separate entry of the source. Read-outs that look alike come from different tables or passages of the source. Residues, ends and D or L forms follow the SMILES beside them. No end group written: not given here.
Legend:
[1] = molecular target: T1, ACE (Oryctolagus cuniculus, UniProt P12822); assay: Effect of ACE on papain-generated peptides: hydrolysis of peptides by ACE followed by RP-HPLC; type: in vitro ADME, rabbit; details: for degradation of the peptide by ACE (in words): after up to 3 h pre-incubation with ACE; for Peaks: number of RP-HPLC peaks; for percentage of peptide cleavage by ACE: over the whole incubation period (0.5 to 3 h); for metabolised at 1 h / metabolised at 2 h / metabolised at 3 h / metabolised at 0.5 h: rabbit, isolated ACE (angiotensin-converting enzyme) solution, read-out: Cleavage (%)
T1 construct: the angiotensin-I-converting enzyme from rabbit lung (2 units/mg protein); purchased Sigma Chemical Co. (St. Louis, MO, USA); host or cells: rabbit lung (tissue-derived)
T1 sequence (P12822 34-1310): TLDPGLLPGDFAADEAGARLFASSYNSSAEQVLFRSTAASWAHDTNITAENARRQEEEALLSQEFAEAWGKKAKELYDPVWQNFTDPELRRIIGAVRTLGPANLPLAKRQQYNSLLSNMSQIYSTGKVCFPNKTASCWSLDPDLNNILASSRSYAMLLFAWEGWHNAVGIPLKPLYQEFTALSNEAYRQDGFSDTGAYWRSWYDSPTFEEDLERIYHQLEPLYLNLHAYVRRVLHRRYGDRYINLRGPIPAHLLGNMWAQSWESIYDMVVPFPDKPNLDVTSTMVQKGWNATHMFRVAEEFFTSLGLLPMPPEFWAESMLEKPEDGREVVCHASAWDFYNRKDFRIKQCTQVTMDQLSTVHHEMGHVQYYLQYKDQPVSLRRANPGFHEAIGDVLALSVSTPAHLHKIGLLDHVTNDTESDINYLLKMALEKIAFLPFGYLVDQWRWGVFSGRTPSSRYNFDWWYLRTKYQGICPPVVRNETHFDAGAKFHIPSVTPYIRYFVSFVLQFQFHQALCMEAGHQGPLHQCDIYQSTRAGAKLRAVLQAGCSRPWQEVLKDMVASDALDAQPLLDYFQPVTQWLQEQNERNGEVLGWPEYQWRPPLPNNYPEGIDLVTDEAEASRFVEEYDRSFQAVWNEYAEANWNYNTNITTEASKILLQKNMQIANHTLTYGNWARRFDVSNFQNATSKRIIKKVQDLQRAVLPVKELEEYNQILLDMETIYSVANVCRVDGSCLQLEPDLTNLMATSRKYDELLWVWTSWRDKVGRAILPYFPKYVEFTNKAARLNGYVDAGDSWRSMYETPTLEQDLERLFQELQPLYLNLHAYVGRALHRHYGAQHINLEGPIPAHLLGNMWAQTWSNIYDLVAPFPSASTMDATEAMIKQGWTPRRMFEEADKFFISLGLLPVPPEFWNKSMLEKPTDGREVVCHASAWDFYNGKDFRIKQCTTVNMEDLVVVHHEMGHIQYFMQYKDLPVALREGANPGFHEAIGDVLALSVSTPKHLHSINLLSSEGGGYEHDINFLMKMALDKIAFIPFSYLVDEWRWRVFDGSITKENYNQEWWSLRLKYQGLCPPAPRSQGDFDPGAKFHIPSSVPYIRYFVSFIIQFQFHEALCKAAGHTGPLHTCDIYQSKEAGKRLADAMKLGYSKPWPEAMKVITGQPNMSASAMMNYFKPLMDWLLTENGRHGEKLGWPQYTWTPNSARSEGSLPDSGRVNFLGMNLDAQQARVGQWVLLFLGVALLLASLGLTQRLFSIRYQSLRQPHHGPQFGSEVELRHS
Protocol: The effect of ACE on papain-generated peptides was analyzed following the method of [Yang et al. (2003)] with some modifications. Briefly, 225 µL of the peptide solution of YGIKVGYAIP,
GGIF, GIFE at concentrations of 2, 4, and 4 mM were separately incubated with 150 µL of ACE (100 mU/mL) at 37 °C. Samples were withdrawn at incubation times of 0, 0.5, 1, 2, and 3 h and kept on ice prior to analysis by HPLC. A 20-µl sample was loaded onto a Hypersil GOLD C18 column (4.6×250 mm) attached to a Shimadzu (Kyoto, Japan) LC 20AT apparatus. The column was conditioned with eluent A (0.1 % TFA in DI) and eluted with 100 % eluent A from 0 to 10 min. The peptides were eluted with eluent B (0.1 % TFA in CH3CN) with a gradient elution of 0–100 % for 10–50 min. The absorbance was read at 215 nm.
To evaluate the possible degrading effects of ACE on the bioactive peptides generated from palm kernel cake proteins prior to examining their inhibitory activity, the peptides were preincubated with ACE in a water bath shaker at 37 °C for 0.5 h, 1 h, 2 h and 3 h, and the resulting peptides were analyzed using RP-HPLC.

[2] = molecular target: T2, angiotensin-I-converting enzyme from rabbit lung (Oryctolagus cuniculus, UniProt P12822); assay: ACE inhibitory activity evaluation (HHL substrate, hippuric acid read at 410 nm); type: biochemical; details: for ACE inhibitory activity (%): Table 5; for ACE-inhibitory capacity (%) With pre-incubation: with pre-incubation with ACE (3 h); for ACE-inhibitory capacity (%) Without pre-incubation: without pre-incubation with ACE
T2 construct: the angiotensin-I-converting enzyme from rabbit lung (2 units/mg protein); purchased Sigma Chemical Co. (St. Louis, MO, USA); host or cells: rabbit lung (tissue-derived)
T2 sequence (P12822 34-1310): T1 sequence (P12822 34-1310)
Protocol: ACE inhibitory potency of peptides was determined following the method described by [Forghani et al. (2016)]. […] The mixture was incubated with Hippuryl-histidyl-leucine (HHL) solution (50 μL) containing 0.1 M borate buffer pH 8.3 and 0.3 M NaCl at 37 °C for 60 min. To terminate the enzymatic reaction, 75 μL of 1 M HCl was added to the mixture. Subsequently 150 μL of pyridine were layered followed by addition of 75 μL of benzenesulfonyl chloride, and the mixture was vortexed for 1 min before being cooled on ice. The absorbance was recorded at 410 nm using a micro plate reader (Labomed, model UVD-2950, USA Power Wave X 340, Biotek Instruments. Inc.,Winooski, VT, USA). The standard curve of hippuric acid (HA) was constructed by plotting absorbance versus _mol of HA produced in 1 mL of reaction volume.

[3] = molecular target: T1, ACE; assay: Kinetics study of ACE inhibition (Lineweaver-Burk / Michaelis-Menten, HHL 15 to 4000 µM); type: biochemical, rabbit; details: from plot of 1/Vmax against inhibitor concentration; read-out: Kiu (enzyme-inhibitor dissociation constant)
Protocol: To determine the mode of enzyme inhibition, Lineweaver-Burk plots of 1/v versus 1/[S] were used. ACE inhibition was determined in the presence of five concentrations of HHL from 15 to 4000 µM and four concentrations of peptides, as shown in Table 1.
Enzyme activity was expressed as nmol hippuric acid produced per min of enzymatic reaction. Kiu was calculated from the plot of 1/Vmax against inhibitor concentration at the intercept on the inhibitor concentration axis ([Cornish-Bowden, 2013]). Vmax and Km were calculated using GRAPHPAD PRISM 5 (GraphPad, Software Inc., San Diego, CA). Michaelis-Menten and Lineweaver-Burk plots were also created using the same software.

[4] = molecular target: ACE; details: literature peptides, read-out: Kiu, cited from earlier work
[5] = incubation with ACE (100 mU/mL) 37 °C, 0.5 h, peptide 2 mM (YGIKVGYAIP), 4 mM (GGIF, GIFE)

| Compound | degradation of the peptide by ACE (in words) [1] | Peaks ([1]; incubation with ACE 37 °C, 1 h) | Peaks ([1]; incubation with ACE 37 °C, 2 h) | Peaks ([1]; incubation with ACE 37 °C, 3 h) | Peaks [1, 5] | percentage of peptide cleavage by ACE [1] | metabolised at 1 h ([1]; incubation with ACE 37 °C, 1 h) | metabolised at 2 h ([1]; incubation with ACE 37 °C, 2 h) | metabolised at 3 h ([1]; incubation with ACE 37 °C, 3 h) | metabolised at 0.5 h [1, 5] | ACE inhibitory activity (%) [2] | ACE-inhibitory capacity (%) With pre-incubation [2] | ACE-inhibitory capacity (%) Without pre-incubation [2] | Ki [3] | Cleavage (%) ([1]; incubation with ACE 37 °C, 2 h) | Cleavage (%) [1, 5] | IC50 [2] | Ki ([4]; ref Girgih, He & Aluko (2014)) | Ki ([4]; ref He, Aluko & Ju (2014)) |
| --- | --- | --- | --- | --- | --- | --- | --- | --- | --- | --- | --- | --- | --- | --- | --- | --- | --- | --- | --- |
| CC[C@H](C)[C@H](NC(=O)CN)C(=O)N[C@@H](Cc1ccccc1)C(=O)N[C@@H](CCC(=O)O)C(=O)O [GIFE] (H-GIFE-OH; N-terminus and C-terminus assumed) | resistant; also recorded: resistant and were not degraded | 1 | 1 | 1 | 1 | ~0% | 0% | 0% | 0% | 0% | 40 ± 1.00% | 43 ± 1.80% | 40 ± 1.00% | 18000 µM |  |  |  |  |  |
| YGIKVGYAIP [YGIKVGYAIP] | degraded; also recorded: not resistant to ACE | 5 | 5 |  | 5 |  | 84 ± 1.6% | 95 ± 3.2% | 98 ± 3.1% | 70 ± 2.2% | 100 ± 3.00% | 93 ± 2.40% | 100 ± 3.00% | 54 µM | 95% | 70% | 1 µM |  |  |
| CC[C@H](C)[C@H](NC(=O)CNC(=O)CN)C(=O)N[C@@H](Cc1ccccc1)C(=O)O [GGIF] (H-GGIF-OH; N-terminus and C-terminus assumed) | resistant to ACE; also recorded: resistant and were not degraded | 1 | 1 | 1 | 1 | approximately 1.5% | 1 ± 0.2% | 1 ± 0.4% | 2 ± 0.6% | 1 ± 0.1% | 97 ± 2.17% | 87 ± 2.70% | 97 ± 2.18% | 1270 µM |  |  | 92 µM |  |  |
| WVYY |  |  |  |  |  |  |  |  |  |  |  |  |  |  |  |  |  | 60 µM |  |
| WYT |  |  |  |  |  |  |  |  |  |  |  |  |  |  |  |  |  | 1830 µM |  |
| RALP |  |  |  |  |  |  |  |  |  |  |  |  |  |  |  |  |  |  | 104 µM |
